Laboratory results reported in patent US20120115724A1, “METHOD OF CONTROLLING UNDESIRED VEGETATION” (SYNGENTA CROP PROTECTION LLC, priority 2009, published 2012).

Columns and labels:
Assay type in all cases: in vivo
[1] = system: XANST Xanthium strumarium; assay: Pre-emergence crop and weed test (Example 16); conditions: after 20 days
Protocol: (§1) Seeds of crop and representative weed species were sown in standard soil in pots. After cultivation for 1 day under controlled conditions in a glasshouse (at 22/16° C., day/night; 16 hours light; 65% humidity), the plants were sprayed. The spray solution was prepared by dissolving the technical active ingredient in acetone containing 10.56 wt % Emulsogen EL, 42.22 wt % N-methylpyrrolidone and 2.22 wt % DPG-monoethyl ether to give a 5% stock solution. This was then diluted with water containing 0.2% (v/v) of the adjuvant X-77 to give the desired treatment concentration.
(§2) The test plants were then grown on under controlled conditions in a glasshouse (at 22/16° C., day/night; 16 hours light; 65% humidity) and watered twice daily. After 20 days the test was evaluated (100=total damage to plant; 0=no damage to plant).
(§3) Species as for Post-Emergence Test.

[2] = system: ABUTH Abutilon theophrasti; assay: Pre-emergence crop and weed test (Example 16); conditions: after 20 days
Protocol: as §1, §2, §3

CHEAL Chenopodium album [3] = assay: Pre-emergence crop and weed test (Example 16); conditions: after 20 days
Protocol: as §1, §2, §3

IPOHE Ipomoea hederacea = assay: Pre-emergence crop and weed test (Example 16); conditions: after 20 days
Protocol: as §1, §2, §3

SINAR Sinapis arvensis = assay: Pre-emergence crop and weed test (Example 16); conditions: after 20 days
Protocol: as §1, §2, §3

KCHSC Kochia scoparia = assay: Pre-emergence crop and weed test (Example 16); conditions: after 20 days
Protocol: as §1, §2, §3

SIDSP Sida spinosa = assay: Pre-emergence crop and weed test (Example 16); conditions: after 20 days
Protocol: as §1, §2, §3

[4] = system: POLCO Polygonum convolvulus; assay: Pre-emergence crop and weed test (Example 16); conditions: after 20 days
Protocol: as §1, §2, §3

CHEAL Chenopodium album [5] = assay: Post-emergence crop and weed test (Example 15); conditions: 360 h, after 15 days, read-out: Percentage damage CHEAL
Outline: (§4)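 Plants grown 14 days in glasshouse pots (22/16 °C day/night, 16 h light, 65% humidity) were sprayed post-emergence with compound formulated as a 5% stock in acetone/Emulsogen EL/NMP/DPG-monoethyl ether, diluted in water with 0.2% X-77. Damage was scored after 15 days (0 = none, 100 = total).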

[6] = system: Echinochloa crus-galli (ECHCG); assay: Pre-emergence biological efficacy (Example 13); conditions: Echinochloa crus-galli, 312 h; pre-emergence, 1,000 g/ha, after 13 days; read-out: Percentage damage ECHCG
Outline: (§5)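 Seeds sown in standard soil in pots, kept one day in a glasshouse (24/16 °C day/night, 14 h light, 65% humidity), then sprayed with aqueous solution from acetone/water (50:50) with 0.5% Tween 20 at 250 or 1000 g/ha. Damage scored after 13 days (0 = none, 100 = total).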

[7] = system: Alopecurus myosuroides (ALOMY); assay: Pre-emergence biological efficacy (Example 13); conditions: Alopecurus myosuroides, 312 h; pre-emergence, 1,000 g/ha, after 13 days; read-out: Percentage damage ALOMY
Outline: as §5

Solanum nigrum (SOLNI) = assay: Pre-emergence biological efficacy (Example 13); conditions: Solanum nigrum, 312 h; pre-emergence, 1,000 g/ha, after 13 days; read-out: Percentage damage SOLNI
Outline: as §5

[8] = system: Amaranthus retroflexus (AMARE); assay: Pre-emergence biological efficacy (Example 13); conditions: Amaranthus retroflexus, 312 h; pre-emergence, 1,000 g/ha, after 13 days; read-out: Percentage damage AMARE
Outline: as §5

Setaria faberi (SETFA) = assay: Pre-emergence biological efficacy (Example 13); conditions: Setaria faberi, 312 h; pre-emergence, 1,000 g/ha, after 13 days; read-out: Percentage damage SETFA
Outline: as §5

[9] = system: Ipomea hederaceae (IPOHE); assay: Pre-emergence biological efficacy (Example 13); conditions: Ipomoea hederacea, 312 h; pre-emergence, 1,000 g/ha, after 13 days; read-out: Percentage damage IPOHE
Outline: as §5

GALAP Galium aparine = assay: Post-emergence crop and weed test (Example 15); conditions: 360 h, after 15 days, read-out: Percentage damage GALAP
Outline: as §4

SMILES	Percentage damage XANST ([1]; 125 g/ha)	Percentage damage ABUTH ([2]; 125 g/ha)	Percentage damage CHEAL (CHEAL Chenopodium album [3]; 125 g/ha)	Percentage damage IPOHE (IPOHE Ipomoea hederacea; 125 g/ha)	Percentage damage SINAR (SINAR Sinapis arvensis; 125 g/ha)	Percentage damage SIDSP (SIDSP Sida spinosa; 125 g/ha)	Percentage damage POLCO ([4]; 125 g/ha)	pest or weed control at 1000 g/ha [6]	pest or weed control at 1000 g/ha [7]	pest or weed control at 1000 g/ha (Solanum nigrum (SOLNI))	pest or weed control at 1000 g/ha [8]	pest or weed control at 1000 g/ha (Setaria faberi (SETFA))	pest or weed control at 1000 g/ha [9]	other results
C/C=C\c1c(N)nc(-c2ccc(Cl)c(N(C)C)c2F)nc1C(=O)OC [Compound 5, (Z)-4-Amino-2-(4-chloro-3-dimethylamino-2-fluorophenyl)-6-methoxy-carbonyl-5-(prop-1-enyl)-pyrimidine]	40%	70%	100%	50%	40%	90%	0%	30%	30%	60%	70%	30%	20%	Percentage damage KCHSC (KCHSC Kochia scoparia; 125 g/ha): 30%; pest or weed control at 30 g/ha (CHEAL Chenopodium album [5]; 30 g/ha): 80%
C/C=C\c1c(N)nc(-c2ccc(Cl)c(OC)c2F)nc1C(=O)OC [Compound 4, (Z)-4-Amino-2-(4-chloro-2-fluoro-3-methoxy-phenyl)-6-methoxy-carbonyl-5-(prop-1-enyl)-pyrimidine]	30%	100%	40%	50%	50%	100%	20%	90%	80%	100%	100%	80%	100%	pest or weed control at 8 g/ha (GALAP Galium aparine; 8 g/ha): 30%
C/C=C/c1c(N)nc(-c2ccc(Cl)c(OC)c2F)nc1C(=O)OC [Compound 3, (E)-4-Amino-2-(4-chloro-2-fluoro-3-methoxy-phenyl)-6-methoxy-carbonyl-5-(prop-1-enyl)-pyrimidine]								90%	90%	80%	50%	80%	90%	Percentage damage XANST ([1]; 30 g/ha): 10%; Percentage damage ABUTH ([2]; 30 g/ha): 30%; Percentage damage CHEAL (CHEAL Chenopodium album [3]; 30 g/ha): 100%; Percentage damage IPOHE (IPOHE Ipomoea hederacea; 30 g/ha): 0%; Percentage damage SINAR (SINAR Sinapis arvensis; 30 g/ha): 40%; Percentage damage KCHSC (KCHSC Kochia scoparia; 30 g/ha): 100%; Percentage damage SIDSP (SIDSP Sida spinosa; 30 g/ha): 90%; Percentage damage POLCO ([4]; 30 g/ha): 50%; pest or weed control at 125 g/ha (CHEAL Chenopodium album [5]; 125 g/ha): 90%; pest or weed control at 125 g/ha (GALAP Galium aparine; 125 g/ha): 70%
